# Measurements: PMC9469649 (Bioorganic & medicinal chemistry letters, 2022)
# How the values were obtained:
# [1] = test system: Kv7.3 over Kv7.2; conditions: cited from earlier work
# [2] = target: Kv7.2/7.3 heterotetramers (Homo sapiens, UniProt O43525+O43526); test: Whole cell patch-clamp electrophysiology, transfected CHO cells, Kv7.2/7.3; type: cell-based
# [3] = target: Kv7.2 wild type (WT) channels (Homo sapiens, UniProt O43526); test: SyncroPatch 384PE automated whole cell patch-clamp, wild type Kv7.2; type: cell-based
# Sequence of Kv7.2 wild type (WT) channels (O43526 whole entry): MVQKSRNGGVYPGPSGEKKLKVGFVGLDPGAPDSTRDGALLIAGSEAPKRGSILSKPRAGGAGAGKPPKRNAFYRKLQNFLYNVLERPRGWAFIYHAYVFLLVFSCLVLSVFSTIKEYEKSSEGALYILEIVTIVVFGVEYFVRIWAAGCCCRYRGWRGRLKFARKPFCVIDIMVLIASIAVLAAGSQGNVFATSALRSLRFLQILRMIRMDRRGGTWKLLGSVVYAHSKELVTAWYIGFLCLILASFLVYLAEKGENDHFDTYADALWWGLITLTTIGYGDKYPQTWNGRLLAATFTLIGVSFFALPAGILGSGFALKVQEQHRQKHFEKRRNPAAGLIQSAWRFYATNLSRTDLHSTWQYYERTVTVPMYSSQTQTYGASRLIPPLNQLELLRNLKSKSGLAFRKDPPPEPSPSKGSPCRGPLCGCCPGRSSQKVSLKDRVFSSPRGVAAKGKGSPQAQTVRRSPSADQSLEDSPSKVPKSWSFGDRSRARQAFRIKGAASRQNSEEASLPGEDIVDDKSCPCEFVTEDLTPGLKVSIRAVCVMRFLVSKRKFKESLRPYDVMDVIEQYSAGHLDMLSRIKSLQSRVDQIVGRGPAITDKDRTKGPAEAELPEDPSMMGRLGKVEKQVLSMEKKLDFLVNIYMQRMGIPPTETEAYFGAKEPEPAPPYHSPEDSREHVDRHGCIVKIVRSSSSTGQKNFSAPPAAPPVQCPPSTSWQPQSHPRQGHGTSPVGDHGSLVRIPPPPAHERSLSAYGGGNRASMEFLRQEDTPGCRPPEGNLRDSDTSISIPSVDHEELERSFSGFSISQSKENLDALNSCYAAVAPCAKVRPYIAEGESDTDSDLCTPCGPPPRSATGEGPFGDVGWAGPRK
compound,measurement,setting,value
"CCOC(=O)Nc1ccc(NCc2ccc(F)cc2)cc1N [Retigabine, retigabine]",lower EC50 for Kv7.3 over Kv7.2,[1],ca. 4 fold
Nc1c(NC(=O)OC2CC2)ccc(NCc2ccc(C(F)(F)F)cc2)c1F [RL-56],EC50,[2],~20 nM
CCOC(=O)Nc1cc(F)c2c(c1N)S(=O)(=O)CC(c1ccccc1)N2 (centres unmarked) [CH-02],Kv7.2 channel activity,"[3]; SyncroPatch screen, 5 μM",completely inactive
[2H]c1cc(NC(=O)OCC)c(N)c(F)c1NCc1ccc(C(F)(F)F)cc1 [RL-25],activity on Kv7.2 relative to RL-71 (less active),"[3]; from EC50 values, Table 2",20 fold
same,potency on Kv7.2 relative to retigabine (more potent),"[3]; from EC50 values, Table 2",4 fold
